pIC50: −log10 of the molar value. Starred links: 1 amine or outer side, 2 acyl side, 3 side chain; linkers in the order of their positions; H or OH if unused. Non-standard residues stand in square brackets, D forms with d. Residues, ends and D or L forms follow the SMILES beside them. *: point of attachment. X4 = O=C(N(Cc1ccc(-c2ccccc2)cc1)N[*:1])[*:2]; azaTyr = O=C(N(Cc1ccc(O)cc1)N[*:1])[*:2]; X3 = O=C(N(Cc1cccc2ccccc12)N[*:1])[*:2]; azaPhe = O=C(N(Cc1ccccc1)N[*:1])[*:2]; azaLeu = CC(C)CN(N[*:1])C(=O)[*:2]; azaPro = O=C(N1CCCN1[*:1])[*:2]; AzaAla = CN(N[*:1])C(=O)[*:2]; X5 = O=C(CC1CNc2ccccc21)*; azaGly = NNC(=O)O
The compounds below were run against human GHS-R1a (Homo sapiens (Human), UniProt Q92847) (assay: GHS-R1a binding assay, competition with 125I-ghrelin on membranes of LLC-PK1 cells expressing human GHS-R1a). Settings: Table 4; LLCPK-1 membranes overexpressing GHS-R1a; radioiodinated (1-28) rat ghrelin as tracer; read-out: EC50 (text: IC50 values from competition curves in GHS-R1a radioreceptor assay).
Chain of human GHS-R1a (Q92847 whole entry): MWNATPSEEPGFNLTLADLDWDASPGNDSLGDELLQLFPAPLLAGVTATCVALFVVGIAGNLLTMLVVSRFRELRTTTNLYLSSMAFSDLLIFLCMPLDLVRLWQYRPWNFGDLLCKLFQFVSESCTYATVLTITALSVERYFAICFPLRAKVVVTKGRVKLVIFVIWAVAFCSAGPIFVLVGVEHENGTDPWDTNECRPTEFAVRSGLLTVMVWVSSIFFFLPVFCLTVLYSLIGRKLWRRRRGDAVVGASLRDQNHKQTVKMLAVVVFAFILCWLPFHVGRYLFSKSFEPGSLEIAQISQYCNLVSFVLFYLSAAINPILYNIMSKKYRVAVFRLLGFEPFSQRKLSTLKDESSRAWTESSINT
Experimental: Rat ghrelin was radio iodinated with Na^125I using the lodo-Beads iodination reagent (Pierce #28665). Briefly, an lodo-bead was incubated with 2 mCi of Na^125I (Amersham) in 100 μL of 50 mM sodium phosphate buffer, pH 7.0 for 5 min at 22° C. The reaction was started by adding 20 nmol of the peptide (1 mM in 0.1 M acetic acid). The tube was incubated for 10 min at 22° C. The iodination was terminated by adding 1 mL of 0.1% TFA. The mono-iodinated peptide was purified by reverse-phase HPLC using a Vydac C18 ([…]) column (30 cm×0.39 cm) in combination with a binary elution system of (A) 0.1% TFA in H2O and (B) 0.1% TFA, 10% H2O, 90% acetonitrile. Fractions of 0.5 mL were collected and analyzed by its radioactive content.
Cells (1.4×10^6) were plated in 100 mm plates and transfected 24 h later with pCDNA3.1-hGHS-R1a (UMR cDNA Resource Center #GHSR0A0000) following the CaHPO4 precipitation method. Briefly, 40 μg of plasmid DNA was diluted in 500 μL of sterile H2O and added to an equal volume of a 4× CaCl2, pH 7.9 solution (2 mM Tris-HCl, 0.2 mM EDTA, 500 mM CaCl2). The mixture was then added slowly with air bubbles to 1 mL of 2× Hepes-buffered saline, pH 7.1 (50 mM Hepes, 280 mM NaCl, 1.5 mM Na2HPO4). After 30 min at room temperature, 1 mL was distributed evenly over the cells and let overnight. The medium was changed the next morning and the membrane preparation was made two days later.
Cells were washed twice with PBS and once with ice-cold homogenization buffer (50 mM Tris-HCl, pH 7.3, 5 mM MgCl2, 2.5 mM EDTA, 30 μg/ml bacitracin). Cells were scraped and harvested in 1.5 mL tubes. Cells were then lysed by temperature shock with two freeze/thaw cycles in liquid nitrogen. The tubes were centrifuged at 14000 g for 20 min. Pellets were resuspended in homogenization buffer and stored at −80° C. until used. Total protein concentrations were determined with the BCA protein assay kit (Pierce).
Competition experiments were performed by incubating 50 μg of LLC-PK1 membranes expressing human GHS-R1a with 15 fmol of ^125I-Ghrelin and increasing concentrations of unlabeled ghrelin or with increasing concentrations of azapeptides derivatives in 0.5 mL of binding buffer. Bound radiolabelled ligand was separated from free by filtration on Whatman GF/C filters pretreated with a 1% polyethylenimine solution. Filters were washed with 2×3 mL of washing buffer (50 mM Tris-HCl, pH 7.3, 10 mM MgCl2, 2.5 mM EDTA, 0.015% Triton X-100). Filters were counted in a LKB gamma counter. Curves were analyzed using Prism software (GraphPad Software Inc).

Structure (SMILES)	pIC50
CN(NC(=O)[C@@H](Cc1c[nH]c2ccccc12)NC(=O)[C@@H](N)Cc1cnc[nH]1)C(=O)N[C@@H](Cc1c[nH]c2ccccc12)C(=O)N[C@H](Cc1ccccc1)C(=O)N[C@@H](CCCCN)C(N)=O [DBG145, His-D-Trp-azaAla-Trp-D-Phe-Lys-NH2] (H-H[dW][AzaAla]W[dF]K-NH2)	6.09
CN(NC(=O)[C@@H](Cc1c[nH]c2ccccc12)NC(=O)CC1CNc2ccccc21)C(=O)N[C@@H](Cc1c[nH]c2ccccc12)C(=O)N[C@H](Cc1ccccc1)C(=O)N[C@@H](CCCCN)C(N)=O (stereo partly drawn) [DBG168-8, In—CO-D-Trp-azaAla-Trp-D-Phe-Lys-NH2] (X5-[dW][AzaAla]W[dF]K-NH2)	6.29
C[C@H](NC(=O)[C@@H](Cc1c[nH]c2ccccc12)NC(=O)[C@@H](N)Cc1cnc[nH]1)C(=O)NN(Cc1ccc(-c2ccccc2)cc1)C(=O)N[C@H](Cc1ccccc1)C(=O)N[C@@H](CCCCN)C(N)=O [DBG253-3, His-D-Trp-Ala-azaBip-D-Phe-Lys-NH2] (H-H[dW]A[X4][dF]K-NH2)	5.87
C[C@H](NC(=O)[C@@H](Cc1c[nH]c2ccccc12)NC(=O)[C@@H](N)Cc1cnc[nH]1)C(=O)NN(Cc1cccc2ccccc12)C(=O)N[C@H](Cc1ccccc1)C(=O)N[C@@H](CCCCN)C(N)=O [DBG253-6, His-D-Trp-Ala-azaNal-1-D-Phe-Lys-NH2] (H-H[dW]A[X3][dF]K-NH2)	6.14

Same assay, conditions: Table 5; read-out: IC50 Binding GHS-R1a

Structure (SMILES)	pIC50
C[C@H](NC(=O)N(Cc1ccccc1)NC(=O)[C@@H](N)Cc1cnc[nH]1)C(=O)N[C@@H](Cc1c[nH]c2ccccc12)C(=O)N[C@H](C)C(=O)N[C@@H](CCCCN)C(N)=O [CP-1A(ii), His-azaPhe-Ala-Trp-D-Ala-Lys-NH2] (H-H[azaPhe]AW[dA]K-NH2)	< 5.00
C[C@H](NC(=O)[C@H](C)NC(=O)N(Cc1ccc(O)cc1)NC(=O)[C@@H](N)Cc1cnc[nH]1)C(=O)N[C@H](Cc1ccccc1)C(=O)N[C@@H](CCCCN)C(N)=O [CP-1B(iii), (D/L)His-azaTyr-Ala-Ala-D-Phe-Lys-NH2] (H-H[azaTyr]AA[dF]K-NH2)	< 5.00
C[C@H](NC(=O)[C@@H](Cc1ccccc1)NC(=O)[C@H](Cc1c[nH]c2ccccc12)NC(=O)NNC(=O)[C@@H](Cc1c[nH]c2ccccc12)NC(=O)[C@@H](N)Cc1cnc[nH]1)C(N)=O [CP-2A(i), His-D-Trp-azaGly-Trp-D-Phe-Ala-NH2] (H-H[dW][azaGly]W[dF]A-NH2)	4.35
C[C@@H](NC(=O)[C@H](Cc1c[nH]c2ccccc12)NC(=O)NNC(=O)[C@@H](Cc1c[nH]c2ccccc12)NC(=O)[C@@H](N)Cc1cnc[nH]1)C(=O)N[C@@H](CCCCN)C(N)=O [CP-2A(ii), His-D-Trp-azaGly-Trp-D-Ala-Lys-NH2] (H-H[dW][azaGly]W[dA]K-NH2)	< 5.00
C[C@H](NC(=O)NNC(=O)[C@@H](Cc1c[nH]c2ccccc12)NC(=O)[C@@H](N)Cc1cnc[nH]1)C(=O)N[C@H](Cc1ccccc1)C(=O)N[C@@H](CCCCN)C(N)=O [CP-2A(iii), His-D-Trp-azaGly-Ala-D-Phe-Lys-NH2] (H-H[dW][azaGly]A[dF]K-NH2)	< 5.00
C[C@@H](NC(=O)[C@@H](N)Cc1cnc[nH]1)C(=O)NNC(=O)N[C@@H](Cc1c[nH]c2ccccc12)C(=O)N[C@H](Cc1ccccc1)C(=O)N[C@@H](CCCCN)C(N)=O [CP-2A(iv), His-D-Ala-azaGly-Trp-D-Phe-Lys-NH2] (H-H[dA][azaGly]W[dF]K-NH2)	< 5.00
CC(C)CN(NC(=O)[C@@H](C)NC(=O)[C@@H](N)Cc1cnc[nH]1)C(=O)N[C@@H](Cc1c[nH]c2ccccc12)C(=O)N[C@H](Cc1ccccc1)C(=O)N[C@@H](CCCCN)C(N)=O [CP-2B (iv), His-D-Ala-azaLeu-Trp-D-Phe-Lys-NH2] (H-H[dA][azaLeu]W[dF]K-NH2)	< 5.00
C[C@H](NC(=O)[C@@H](C)NC(=O)[C@@H](N)Cc1cnc[nH]1)C(=O)NN(Cc1ccccc1)C(=O)N[C@H](Cc1ccccc1)C(=O)N[C@@H](CCCCN)C(N)=O [CP-3 (iii), His-D-Ala-Ala-azaPhe-D-Phe-Lys-NH2] (H-H[dA]A[azaPhe][dF]K-NH2)	< 5.00
C[C@H](N)C(=O)N[C@H](Cc1c[nH]c2ccccc12)C(=O)N[C@@H](C)C(=O)NN(Cc1ccccc1)C(=O)N[C@H](Cc1ccccc1)C(=O)N[C@@H](CCCCN)C(N)=O [CP-3 (iv), Ala-D-Trp-Ala-AzaPhe-D-Phe-Lys-NH2] (H-A[dW]A[azaPhe][dF]K-NH2)	< 5.00
C[C@H](NC(=O)[C@@H](Cc1ccccc1)NC(=O)N(Cc1ccccc1)NC(=O)[C@H](C)NC(=O)[C@@H](Cc1c[nH]c2ccccc12)NC(=O)[C@@H](N)Cc1cnc[nH]1)C(N)=O [CP-3(i), His-D-Trp-Ala-AzaPhe-D-Phe-Ala-NH2] (H-H[dW]A[azaPhe][dF]A-NH2)	< 5.00
C[C@H](NC(=O)[C@@H](Cc1c[nH]c2ccccc12)NC(=O)[C@@H](N)Cc1cnc[nH]1)C(=O)NN(Cc1ccccc1)C(=O)N[C@H](C)C(=O)N[C@@H](CCCCN)C(N)=O [CP-3(ii), His-D-Trp-Ala-azaPhe-D-Ala-Lys-NH2] (H-H[dW]A[azaPhe][dA]K-NH2)	< 5.00
NCCCC[C@H](NC(=O)[C@@H](Cc1ccccc1)NC(=O)[C@H](Cc1c[nH]c2ccccc12)NC(=O)N1CCCN1C(=O)[C@@H](Cc1c[nH]c2ccccc12)NC(=O)[C@@H](N)Cc1cnc[nH]1)C(N)=O [CP-AP_4, His-D-Trp-azaPro-Trp-D-Phe-Lys-NH2] (H-H[dW][azaPro]W[dF]K-NH2)	< 5.00
NCCCC[C@H](NC(=O)[C@@H](Cc1ccccc1)NC(=O)C1CCCN1C(=O)NNC(=O)[C@@H](Cc1c[nH]c2ccccc12)NC(=O)[C@@H](N)Cc1cnc[nH]1)C(N)=O (stereo partly drawn) [CP-AzaGly-Pro, His-D-Trp-azaGly-Pro-D-Phe-Lys-NH2]	< 5.00

Reference: patent US9708370B2, “Azapeptides as CD36 binding compounds” (VALORISATION-RECHERCHE, LIMITED PARTNERSHIP, priority 2007, dated 2017)
